Assay results published in article PMC12593409, “Heterochiral and Heterotypic Self-Assembly of Intrinsically Disordered Peptides Confers Peptide Supercoils with Exceptional Proteolytic Stability” (Journal of the American Chemical Society, 2025).
Like-named read-outs stand apart in the source and are kept apart here. Non-standard residues stand in square brackets, D forms with d. Residues, ends and D or L forms follow the SMILES beside them. *: point of attachment. Acetyl(1-pyrenyl) = O=C(Cc1ccc2ccc3cccc4ccc1c2c34)*; d(pY) = N[C@H](Cc1ccc(OP(=O)(O)O)cc1)C(=O)O; pY = N[C@@H](Cc1ccc(OP(=O)(O)O)cc1)C(=O)O

Key:
[1] = tested on: alkaline phosphatase (ALP); experiment: in vitro; details: alkaline phosphatase (ALP, 1 U/mL)
Description: (§1) (D) Kinetics of ALP-mediated dephosphorylation under similar conditions using 1 U/mL ALP.
(§2) To further validate the structural hypothesis, we performed enzymatic assays using ALP, which removes phosphate groups from both D- and L-tyrosines and has been widely used to explore enzyme-instructed self-assembly (EISA). , This setup isolates Pyn-EEEEEpY as the reactive component, allowing us to assess the impact of coassembly with Pyn-KKKKKK on dephosphorylation kinetics. Using the same protocol as the protease experiments, we measured the rate of dephosphorylation for Pyn-EEEEEpY monomers and their homo- and heterochiral mixtures with two equivalents of Pyn-KKKKKK (Figure S54 and Table S2).

[2] = tested on: alkaline phosphatase (ALP); details: 1 U/mL ALP, 37 °C, neutral pH, monomeric peptide, LC/MS
Description: as §1, §2

[3] = target: proteinase K (Parengyodontium album, UniProt P06873); experiment: Proteolytic stability against proteinase K, followed by LC/MS
Chain of proteinase K (P06873 106-384): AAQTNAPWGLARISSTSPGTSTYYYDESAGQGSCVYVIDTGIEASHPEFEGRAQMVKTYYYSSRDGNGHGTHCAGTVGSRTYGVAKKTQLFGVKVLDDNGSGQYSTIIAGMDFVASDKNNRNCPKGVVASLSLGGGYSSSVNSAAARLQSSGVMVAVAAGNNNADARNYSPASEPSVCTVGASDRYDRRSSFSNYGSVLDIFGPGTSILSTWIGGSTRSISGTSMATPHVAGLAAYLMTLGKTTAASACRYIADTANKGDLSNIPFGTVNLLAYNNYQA
Method: At designated time points, we quenched the reactions and analyzed them by LC/MS (Figures S34, S52–S53, and Table S1).
Proteinase K Treatment: To 200 µL solutions containing peptides 1, 2, 3, 4, and their mixtures (1/2, 1/4, 3/2, 3/4) in double-distilled water, 2 µL of a 100 mg/mL proteinase K stock solution was added to achieve a final concentration of 1 mg/mL. The reactions were incubated at 37 °C. For controls, 40 µL aliquots were withdrawn from each solution prior […]
were rapidly frozen in liquid nitrogen to stop the reaction. Samp les were then lyophilized at −80 °C, reconstituted in 0.1% TFA in H2O/acetonitrile (1:1 v/v), filtered, and analyzed […]
LC/MS analysis was performed with solvent A (water + 0.1% formic acid) and solvent B (acetonitrile + 0.1% formic acid) with a gradient program using the following separation […]
13.1 min 95%A, 5%B; 14 min 95%A, 5%B. The mass spectrometer was operated in positive ion mode, scanning a range of 50 –3000 m/z.

Compound: O=C(O)CC[C@H](NC(=O)Cc1ccc2ccc3cccc4ccc1c2c34)C(=O)N[C@@H](CCC(=O)O)C(=O)N[C@@H](CCC(=O)O)C(=O)N[C@@H](CCC(=O)O)C(=O)N[C@@H](CCC(=O)O)C(=O)N[C@@H](Cc1ccc(OP(=O)(O)O)cc1)C(=O)O [compound 1, Pyn-(L)-EEEEEpY] ({Acetyl(1-pyrenyl)}-EEEEE[pY]-OH)
- half-life [1]: 4.7 min
- time to complete dephosphorylation [2]: ≤ 30 min
- time to almost complete proteolysis ([3]; 1 mg/mL proteinase K, 37 °C, neutral pH, 1 mM monomeric peptide, LC/MS): ≤ 30 min
- thalf of Pyn-(L)-EEEEEpY (1) in proteinase K digestion ([3]; 1 mg/mL proteinase K, 37 °C, neutral pH, double-distilled water, 1 mM 1 alone or 500 μM 1 with 2 equiv of 2 or 4, sampled 5 min, 30 min, 2 h, 24 h, kinetic analysis of HPLC peak areas (LC/MS)): approximately 10 min
- half-life at 1 mM ([3]; isolated enzyme proteinase k): 10 min

Compound: O=C(O)CC[C@@H](NC(=O)Cc1ccc2ccc3cccc4ccc1c2c34)C(=O)N[C@H](CCC(=O)O)C(=O)N[C@H](CCC(=O)O)C(=O)N[C@H](CCC(=O)O)C(=O)N[C@H](CCC(=O)O)C(=O)N[C@H](Cc1ccc(OP(=O)(O)O)cc1)C(=O)O [compound 3, Pyn-(D)-eeeeepy] ({Acetyl(1-pyrenyl)}-[dE][dE][dE][dE][dE][d(pY)]-OH)
- half-life [1]: 9.6 min
- time to complete dephosphorylation [2]: ≤ 30 min

Compound: NCCCC[C@H](NC(=O)[C@H](CCCCN)NC(=O)[C@H](CCCCN)NC(=O)[C@H](CCCCN)NC(=O)[C@H](CCCCN)NC(=O)[C@H](CCCCN)NC(=O)Cc1ccc2ccc3cccc4ccc1c2c34)C(=O)O [compound 4, Pyn-(L)-KKKKKK]
- proteolysis of Pyn-(L)-KKKKKK (4) alone ([3]; 1 mg/mL proteinase K, 37 °C, peptide alone, LC/MS (Figure S35B)): largely resistant to proteolysis

Compound: Pyn-(L)-EEEEEpY/Pyn-(D)-kkkkkk [1/2]
- cleavage slower than for Pyn-(L)-EEEEEpY (1) alone [3]: over 360 times
- state of Pyn-(L)-EEEEEpY (1) under proteinase K for up to 24 h [3]: remained largely intact
- thalf of Pyn-(L)-EEEEEpY (1) in proteinase K digestion [3]: > 3600 min

Compound: Pyn-(L)-EEEEEpY/Pyn-(L)-KKKKKK [1/4]
- increase in half-life compared to the L-peptide (1) alone [3]: 287 fold
- thalf of Pyn-(L)-EEEEEpY (1) in proteinase K digestion [3]: 2872 min
